Structures are written as SMILES. Where two headings read alike, the source gives them in different places.

The format of the series is physicochemical. The following applies: for effect of added alkaline compound on stability of nBTPT on UAS: UAS+500 ppm nBTPT powder+2350 ppm rapeseed oil, 12 days open to air storage at 30° C. in an oven; for half-life time for nBTPT: stored in bags at room temperature (20-25° C.). Here is the method:
For lab scale experiments, 1.2 kg of solid fertilizer material was added to a lab scale drum. In a next step, the nBTPT material was slowly added. A residence time of 10 minutes was applied and the rotating speed of the drum was consequently the same in each experiment. In case a moisture repellent coating was added, a nebulizer was used and depending on the order of addition, the moisture repellent coating was added before or after addition of the nBTPT material. Before use, the moisture repellent coating was preheated to 80° C. Larger scale experiments with amounts up to 40 kg of fertilizer material were performed in a concrete mixer.
The samples were stored under several conditions, dependent on the type of samples: • 20° C. closed plastic container with head space (Climate chamber, 80% relative humidity) • Bagged at room temperature (20-25° C.) or in nissenhut • Open to air in nissenhut • Cylinder test in nissenhut • Open pile in nissenhut
For some samples, an accelerated stability test was done storing these samples at elevated temperatures: • Oven of 30° C. closed plastic container • Oven of 30° C. open to air • 30° C./60% RH open to air • 70° C. closed plastic container
Typically, a day/night cycle is generated in the nissenhut, with temperature fluctuations between 0 to 42° C. and fluctuations of relative humidity between 20 and 90%, which can be compared with real life storage in silos.
HPLC analysis of nBTPT is done as described in the procedure CEN 15688-2007.

`O=C([O-])[O-].[Ca+2]` [calcium carbonate]: the “effect of added alkaline compound on stability of nBTPT on UAS” value (“effect of added alkaline compound” below) was “stabilizing effect”.

With `[O]=[Ca]` [calcium oxide], the “effect of added alkaline compound” value is listed as “stabilizing effect”. Under “500-2350 ppm calcium oxide, UAS+500 ppm nBTPT powder, 8 days open to air at nissenhut (16-42° C./27-77% relative humidity)”, the “effect of added calcium oxide on stability of nBTPT on UAS” value was “large stabilizing effect”.

`CCCCNP(N)(N)=S` [nBTPT, N-(n-butyl) thiophosphoric triamide]: the “effect of moisture repellent coating and of solid particulate form on stability of nBTPT on UAS” value (7 days in closed plastic containers with head space at 20° C./80% relative humidity, FIG. 10) was “beneficial effect”. Moreover, where the note is “16 days in bags at nissenhut (16-42° C./27-77% relative humidity), FIG. 8”, the “effect of calcium oxide addition and of solid particulate form on stability of nBTPT on UAS” value is given as “beneficial effect”. The “effect of calcium oxide addition and of bagged storage on stability of nBTPT on UAS” value (16 days in nissenhut (16-42° C./27-77% relative humidity), FIG. 9) is “beneficial effect”. Besides, the “effect of calcium oxide, solid particulate form, moisture repellent coating and bagged storage on stability of nBTPT on UAS” value (16 days in nissenhut (16-42° C./27-77% relative humidity), FIG. 12) was “beneficial effect”. For the same compound, the “effect of solid particulate form and of bagged storage on stability of nBTPT on UAS” value (28 days at room temperature (20-25° C.), FIG. 11) is “beneficial effect”. Moreover, where the note is “solid nBTPT (500 ppm), 28 days at room temperature (20-25° C.)”, the “effect of bagged versus open to air storage on stability of nBTPT on UAS” value is recorded as “beneficial effect”. Also, the “half-life time for nBTPT” value is reported as 6-12 months (solid particulate form on UAS plus alkaline or alkaline-forming compound and moisture repellent coating); “only a few days” (urease inhibitor in liquid form on UAS); “up to 4 months” (urease inhibitor in solid particulate form on UAS).

Take `[O]=[Zn]` [zinc oxide]: the “effect of added alkaline compound” value is reported as “best effect”.
